Measurements: patent publication US5116829A, “Steroid compounds” (Kao Corporation, priority 1990, dated 1992)
Like-named read-outs stand apart in the source and are kept apart here.

Assays:
granuloma = test: Anti-inflammatory activity (2): granuloma around embedded filter paper; format: in vivo, Wistar male rats; details: 10^-2 M, 50 μl/paper, after 6 days; for inhibition at 10000 µM: Rattus norvegicus, 144 h, read-out: Granulating Inhibitory Rate (%)
Description: Test Method of Anti-inflammatory Activity (2) Wistar male rats, age 5 weeks, each group consisting of 5-8 rats, were served for the test. […] The paper was embedded into the right back of the rats. Into the left back was embedded an untreated antibiotic test filter paper. After 6 days, the animals were sacrificed by bleeding and the backs were incised to extract each granuloma formed around the filter. The granuloma was dried and weighed. To the right backs of the control group antibiotic test filter papers infiltrated with 50 μl/paper of ethanol and dried were embedded.

edema of rat auricle = test: Anti-inflammatory activity (1): croton oil-induced auricle edema; format: in vivo, Wistar male rats; details: 10^-3 M, 800 μl/auricle, 15 seconds, weighed after 6 hours, read-out: Edema inhibitory rate (%)
Procedure: Test Method of Anti-inflammatory Activity (1) […] Wistar male rats, age 5 weeks, each group consisting of 5, were served for the test. The test samples and an inflammation-inducingbase material (control) were infiltrated into circular […]) fixed onto specially prepared tweezers and the right auricles of the animals were put between the tweezers to apply the samples (800 μl/auricle) for 15 seconds at a constant pressure of 500 gw. After 6 hours, the both auricles were punched (.phi. 9 mm) and weighed. An edema inhibitory rate determined by the following equation was taken as an index of the anti-inflammatory activity of the steroid samples. Edema inhibitory rate (%)=100-Y/Z×100 wherein Y is the weight difference (mg) of the right auricle to which the sample drug was applied and the untreated left auricle, and Z is the weight difference (mg) of the right auricle of the rat to which the inflammation-inducing base material was applied and the untreated left auricle.

thymus = test: Systemic side effects: thymus weight; format: in vivo, ddY male mice; details: 2 mM in peanut oil, s.c., two times at 24 hour interval; Means ± S.E.
Procedure: Systemic side effects of the compound of the present invention were evaluated according to the following method.
Suspensions of the test compounds (2 mM) in peanut oil were subcutaneously injected into the back of ddY male mice (weight: about 30 gm), 10 mice consisting of a test group, two times, once a day at a 24 hour interval. After 24 hours from the last injection, the mice were sacrificed to extract the thymus and to weigh its weight. For the control group only peanut oil was administered. The results are shown in […]

[1] = Acute toxicity (oral administration); set-up: species or system ICR mice (male); details: mouse, in vivo, 14 days after administration, read-out: Viability (%)
Procedure: Acute toxicity (oral administration) of the compound of the present invention was evaluated according to the following method. […]

[2] = tested on: eosinophiles infiltration; test: Anti-allergic activity: FMLP-induced eosinophiles infiltration in trachea; format: in vivo, guinea pigs (male); details: positive control; after 4 hours (so in the source)
Procedure: Test Method of Anti-allergic Activity
To tracheas around the neck of guinea pigs (male; weight 200-300 gm) exposed under anesthesia with Nembutal (0.05 ml/animal, i.p.) were injected FMLP (10^-4 M), which is an inflammation-inducing compound, dissolved in 1% dimethylsulfoxide solution in physiological saline, individually o together with the test compound with a 26 guage needle. For the negative control, only dimethylsulfoxide was injected, and for the positive control betamethasone was administered. […] Eosinophiles infiltrated into the upper, middle, and lower parts of the trachea were counted by microscope. Numbers of eosinophiles found in tracheas to which the test compound was injected were compared with those to which FMLP was independently injected.

Structure (SMILES)	Dry weight of ganuloma (granuloma) [mg]	inhibition at 10000 µM (granuloma) [%]	inhibition at 1000 µM (edema of rat auricle) [%]	Thymus weight/10 gm body weight (thymus) [mg]	survival at 336 h ([1]; dose 1.7 (mg/kg)) [%]	survival at 336 h ([1]; dose 3.3 (mg/kg)) [%]	survival at 336 h ([1]; dose 5 (mg/kg)) [%]	eosinophiles infiltration inhibitory effect [2]
CCCCC(=O)O[C@]1(C(=O)CSC(=O)[C@H](CCSC)NC=O)[C@@H](C)C[C@H]2[C@@H]3CCC4=CC(=O)C=C[C@]4(C)[C@@]3(F)[C@@H](O)C[C@@]21C [Compound No. 6, 9-Fluoro-21-[2-(formylamino)-4-methylthio-1-oxobutylthio]-11β-hydroxy-16β-methyl-17-(1-oxopentyloxy)-pregna-1,4-diene-3,20-dione]	7.4	63.9	–	–	–	–	–	–
CSCC[C@H](NC=O)C(=O)SCC(=O)[C@@]1(O)[C@@H](C)C[C@H]2[C@@H]3CCC4=CC(=O)C=C[C@]4(C)[C@@]3(F)[C@@H](O)C[C@@]21C [Compound No. 1, 9-Fluoro-21-[2-(formylamino)-4-methylthio-1-oxobutylthio]-11β,17-dihydroxy-16β-methylpregna-1,4-diene-3,20-dione]	10.7	47.7	44	23.4 ± 0.3	100	100	100	–
CSCC[C@H](NC=O)C(=O)SCC(=O)[C@@]12OC(C)(C)O[C@@H]1C[C@H]1[C@@H]3CCC4=CC(=O)C=C[C@]4(C)[C@@]3(F)[C@@H](O)C[C@@]12C [Compound No. 3, 9-Fluoro-21-[2-(formylamino)-4-methylthio-1-oxobutylthio]-11β-hydroxy-16α,17α-isopropylidenedioxypregna-1,4-diene-3,20-dione]	–	–	74	–	–	–	–	–
C[C@H]1C[C@H]2[C@@H]3CCC4=CC(=O)C=C[C@]4(C)[C@@]3(F)[C@@H](O)C[C@]2(C)[C@@]1(O)C(=O)CO [Betamethasone, betamethasone]	–	–	–	15.4 ± 1.4	–	–	–	only a small effect
CCCCC(=O)O[C@]1(C(=O)CO)[C@@H](C)C[C@H]2[C@@H]3CCC4=CC(=O)C=C[C@]4(C)[C@@]3(F)[C@@H](O)C[C@@]21C [Betamethasone 17-valerate, betamethasone 17-valerate, reference compound]	15.0	26.6	34	–	100	100	50	–
CSCCC(NC=O)C(=O)SCC(=O)[C@@]1(O)[C@H](C)C[C@H]2[C@@H]3CC(F)C4=CC(=O)C=C[C@]4(C)[C@@]3(F)[C@H](O)C[C@@]21C (stereo partly drawn) [Compound No. 5, 6,9-Difluoro-21-[2-(formylamino)-4-methylthio-1-oxobutylthio]-11α,17-dihydroxy-16α-methylpregna-1,4-diene-3,20-dione]	–	–	74	–	–	–	–	–
C[C@]12CCC(=O)C=C1CC[C@@H]1[C@@H]2[C@@H](O)C[C@@]2(C)[C@H]1CC[C@]2(O)C(=O)CO [Hydrocortisone, hydrocortisone, reference compound]	–	–	–	20.8 ± 2.1	–	–	–	–
